Results published in patent US10160771B2, “Hepatitis C virus inhibitors and uses thereof in preparation of drugs” (priority 2014, dated 2018).

How the values were obtained:
[1] = test system: HCV genotype 1a (HCV-1a) replicon cells; assay: HCV genotype 1a replicon luciferase assay (EC50); format: cell-based, hepatitis C virus genotype 1a (H77 clone); details: Hepatitis C virus, 72 h, 3 days, luciferase (Bright-Glo)
Method in brief: (§1)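 Stable subgenomic replicon cells (1a: H77 with K1691R, K2040R, S2204I; 1b: Con1 with E1202G, T1280I, K1846T) carrying luciferase and neo were seeded at 8000 cells/well onto compounds (5-fold, 6-point, top 100, 10 or 1 nM; 0.5% DMSO) for 3 days at 37 °C. Bright-Glo luminescence gave EC50 by nonlinear fit.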

[2] = test system: HCV genotype 1b (HCV-1b) replicon cells; assay: HCV genotype 1b replicon luciferase assay (EC50); format: cell-based, hepatitis C virus genotype 1b (Con1 clone); details: Hepatitis C virus, 72 h, 3 days, luciferase (Bright-Glo)
Method in brief: as §1

[3] = Cell Titer-fluor cell activity assay in HCV-1b replicon cells (CC50); format: cell-based
Method in brief: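 Con1 genotype 1b replicon cells (E1202G, T1280I, K1846T adaptive mutations), 8000 cells/well, exposed to 6-point 5-fold dilutions from 100, 10 or 1 nM top concentration in 0.5% DMSO, duplicate wells, 3 days at 37 °C. Viability read by Cell Titer-fluor (Ex 405/Em 515 nm) after 30 min; CC50 from nonlinear fit of inhibition %.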

SMILES	EC50 [1] [nM]	EC50 [2] [nM]	CC50 at 3 days [3] [nM]
COC(=O)N[C@H](C(=O)N1C[C@@H](OC)C[C@H]1c1ncc(-c2ccc(-c3ccc(-c4cnc([C@@H]5C6CCC(C6)[C@H]5C(=O)NCc5cccnc5)[nH]4)cc3)cc2)[nH]1)C(C)C (stereo partly drawn) [AA_230_A]	0.101 to 1	0.001 to 0.1	> 1
COC(=O)N[C@H](C(=O)N1CCC[C@H]1c1ncc(-c2ccc(-c3ccc(-c4cnc(C5C6CCC(C6)[C@@H]5C(=O)NCc5cccnc5O)[nH]4)cc3)cc2)[nH]1)[C@@H](C)OC (stereo partly drawn) [AA_263_B]	1 to 10	0.101 to 1	> 1
COC(=O)N[C@H](C(=O)N1CCC[C@H]1c1ncc(-c2ccc(-c3ccc(-c4cnc([C@@H]5[C@H]6CC[C@H](C6)[C@H]5C(=O)NN(C(C)=O)C(C)C)[nH]4)cc3)cc2)[nH]1)C(C)C [AA_300_ENDOA2]	10 to 100	0.101 to 1	> 1
COC(=O)N[C@H](C(=O)N1CCC[C@H]1c1nc2cc(-c3ccc(-c4[nH]c([C@@H]5CCCN5C(=O)[C@@H](NC(=O)OC)C(C)C)c5c4CCC5)cc3)ccc2[nH]1)C(C)C [AG_063]	10 to 100	0.001 to 0.1	> 1
COC(=O)N[C@H](C(=O)N1CCC[C@H]1c1ncc(-c2ccc(-c3ccc(-c4cnc([C@@H]5C6CCC(C6)[C@H]5C(=O)NCc5ccc(OC)nc5)[nH]4)cc3)cc2)[nH]1)C(C)C (stereo partly drawn) [AA_200_B]	1 to 10	0.001 to 0.1	> 1
COC(=O)N[C@H](C(=O)N1CCC[C@H]1c1ncc(-c2ccc(-c3ccc(-c4cnc([C@@H]5[C@H]6CC[C@H](C6)[C@H]5C(=O)NCc5cccnc5)[nH]4)cc3)cc2)[nH]1)C(C)C [AA_162_ENDOA2]	0.101 to 1	0.001 to 0.1	> 1
COC(=O)N[C@H](C(=O)N1CCC[C@H]1c1ncc(-c2ccc(-c3ccc(-c4cnc([C@H]5C6CCC(C6)[C@@H]5C(=O)NCC5CNc6ccccc6C5)[nH]4)cc3)cc2)[nH]1)C(C)C (stereo partly drawn) [AA_218]	10 to 100	0.101 to 1	> 1
COC(=O)N[C@H](C(=O)N1C[C@@H](OC)C[C@H]1c1ncc(-c2ccc(-c3ccc(-c4cnc([C@H]5C6CCC(C6)[C@@H]5C(=O)NCc5cccnc5)[nH]4)cc3)cc2)[nH]1)C(C)C (stereo partly drawn) [AA_230_B]	1 to 10	0.001 to 0.1	> 1
COC(=O)N[C@H](C(=O)N1CCC[C@H]1c1ncc(-c2ccc(-c3ccc(-c4cnc([C@@H]5C6CCC(C6)[C@H]5C(=O)NCc5ccccc5)[nH]4)cc3)cc2)[nH]1)C(C)C (stereo partly drawn) [AA_207_B]	10 to 100	0.001 to 0.1	> 1
COC(=O)N[C@H](C(=O)N1CCC[C@H]1c1ncc(-c2ccc(-c3ccc(-c4cnc([C@@H]5C6CCC(C6)[C@H]5C(=O)NCc5ccc(C(C)C)nc5)[nH]4)cc3)cc2)[nH]1)C(C)C (stereo partly drawn) [AA_236_B]	10 to 100	0.101 to 1	> 1
COC(=O)N[C@H](C(=O)N1CCC[C@H]1c1ncc(-c2ccc(-c3ccc(-c4cnc(C5C6CCC(C6)[C@H]5C(=O)NCc5cccnc5C(F)(F)F)[nH]4)cc3)cc2)[nH]1)[C@@H](C)OC (stereo partly drawn) [AA_255_B]	10 to 100	0.001 to 0.1	> 1
COC(=O)N[C@H](C(=O)N1CCC[C@H]1c1[nH]c(-c2ccc(-c3ccc(-c4[nH]c([C@@H]5CCCN5C(=O)[C@@H](NC(=O)OC)C(C)C)c5c4CCC5)cc3)cc2)c2c1CCC2)C(C)C [AG_026_A]	10 to 100	0.101 to 1	> 10
COC(=O)N[C@H](C(=O)N1CCC[C@H]1c1ncc(-c2ccc(-c3ccc(-c4[nH]c([C@@H]5CCCN5C(=O)[C@@H](NC(=O)OC)[C@@H](C)OC)c5c4CCCC5)cc3)cc2)[nH]1)C(C)C [AG_078_A]	10 to 100	0.001 to 0.1	> 5
COC(=O)N[C@H](C(=O)N1CCC[C@H]1c1ncc(-c2ccc(-c3ccc(-c4cnc(C5C6CCC(C6)[C@H]5C(=O)Nc5ccccc5)[nH]4)cc3)cc2)[nH]1)[C@@H](C)OC (stereo partly drawn) [AA_246_B]	10 to 100	0.101 to 1	> 1
COC(=O)N[C@H](C(=O)N1CCC[C@H]1c1ccc(-c2ccc(-c3ccc(-c4cnc([C@@H]5CCCCN5C(=O)[C@@H](NC(=O)OC)[C@@H](C)OC)[nH]4)cc3)cc2)[nH]1)[C@@H](C)OC [AG_120]	1 to 10	0.001 to 0.1	> 1
COC(=O)N[C@H](C(=O)N1CCC[C@H]1c1cnc(-c2ccc(-c3ccc(-c4ncc(C5C6CCC(C6)[C@H]5C(=O)N(NC(=O)OC)C(C)C)[nH]4)cc3)cc2OC)[nH]1)C(C)C (stereo partly drawn) [AA_166_A]	10 to 100	0.001 to 0.1	> 5
COC(=O)NC(C(=O)N1CCC[C@H]1c1[nH]c(-c2ccc(-c3ccc(-c4cnc([C@@H]5CCCN5C(=O)[C@@H](NC(=O)OC)[C@@H](C)OC)[nH]4)cc3)cc2)c2c1CCC2)[C@@H](C)OC (stereo partly drawn) [AG_068_A]	1 to 10	0.001 to 0.1	> 1

SMILES	EC50 [1] [nM]	EC50 [2] [nM]	CC50 at 3 days [3] [nM]
COC(=O)N[C@H](C(=O)N1CCC[C@H]1c1ncc(-c2ccc(-c3ccc(-c4cnc([C@@H]5C6CCC(C6)[C@H]5C(=O)NCc5cccnc5F)[nH]4)cc3)cc2)[nH]1)C(C)C (stereo partly drawn) [AA_224_B]	1 to 10	0.001 to 0.1	> 1
COC(=O)N[C@H](C(=O)N1CCC[C@@H]1c1[nH]c(-c2ccc(-c3ccc(-c4cnc([C@@H]5CCCN5C(=O)[C@@H](NC(=O)OC)C(C)C)[nH]4)cc3)cc2)c2c1CCCO2)C(C)C [AG_114_B]	10 to 100	0.101 to 1	> 1
COC(=O)N[C@H](C(=O)N1CCC[C@H]1c1[nH]c(-c2ccc(-c3ccc(-c4cnc([C@@H]5CCCN5C(=O)[C@@H](NC(=O)OC)[C@@H](C)O)[nH]4)cc3)cc2)c2c1COC2)C(C)C [AG_104]	0.001 to 0.1	0.001 to 0.1	> 1
COC(=O)N[C@H](C(=O)N1CCC[C@H]1c1ncc(-c2ccc(-c3ccc(-c4cnc(C5C6CCC(C6)[C@@H]5C(=O)NC(C)c5cccnc5)[nH]4)cc3)cc2)[nH]1)C(C)OC (stereo partly drawn) [AA_251_B]	1 to 10	0.101 to 1	> 1
COC(=O)N[C@H](C(=O)N1CCCC1c1ncc(-c2ccc(-c3ccc(-c4[nH]c([C@@H]5CCCN5C(=O)[C@@H](NC(=O)OC)C(C)C)c5c4CCC5)cc3)cc2)[nH]1)C(C)C (stereo partly drawn) [AG_014_A]	1 to 10	0.001 to 0.1	> 10
COC(=O)N[C@H](C(=O)N1CCC[C@H]1c1ncc(-c2ccc(-c3ccc(-c4cnc(C5C6CCC(C6)[C@H]5C(=O)NCc5nccs5)[nH]4)cc3)cc2)[nH]1)[C@@H](C)OC (stereo partly drawn) [AA_219_A]	1 to 10	0.001 to 0.1	> 1
COC(=O)N[C@H](C(=O)N1CCC[C@@H]1c1ccc(-c2ccc(-c3ccc(-c4cnc([C@@H]5CCCN5C(=O)[C@@H](NC(=O)OC)[C@@H](C)OC)[nH]4)cc3)cc2)[nH]1)C(C)C [AG_061_B]	0.101 to 1	0.001 to 0.1	> 10
COC(=O)N[C@H](C(=O)N1CCC[C@H]1c1ncc(-c2ccc(-c3ccc(-c4ccc([C@H]5CCCN5C(=O)N(NC(=O)OC)C(C)C)[nH]4)cc3)cc2)[nH]1)C(C)C [AG_081_B]	10 to 100	0.001 to 0.1	> 1
COC(=O)N[C@H](C(=O)N1CCCC1c1cc(Cl)c(-c2ccc(-c3ccc(-c4cnc([C@@H]5CCCN5C(=O)[C@@H](NC(=O)OC)C(C)C)[nH]4)cc3)cc2)[nH]1)C(C)C (stereo partly drawn) [AG_087]	0.101 to 1	0.001 to 0.1	> 1
COC(=O)N[C@H](C(=O)N1CCC[C@H]1c1ncc(-c2ccc(-c3ccc(-c4cnc([C@H]5C6CCC(C6)[C@@H]5C(=O)NCc5ccco5)[nH]4)cc3)cc2)[nH]1)C(C)C (stereo partly drawn) [AA_198_A]	1 to 10	0.001 to 0.1	> 1
COC(=O)N[C@H](C(=O)N1CCC[C@H]1c1ncc(-c2ccc(-c3ccc(-c4cnc(C5C6CCC(C6)[C@@H]5C(=O)N(C)c5ccccn5)[nH]4)cc3)cc2)[nH]1)[C@@H](C)OC (stereo partly drawn) [AA_247_A]	0.101 to 1	0.001 to 0.1	> 1
COC(=O)N[C@H](C(=O)N1CCC[C@H]1c1ncc(-c2ccc(-c3ccc(-c4cnc([C@@H]5[C@H]6CC[C@H](C6)[C@H]5C(=O)N[C@H](C)c5cccnc5)[nH]4)cc3)cc2)[nH]1)C(C)C [AA_204_ENDOA2_B]	1 to 10	0.001 to 0.1	> 1
COC(=O)N[C@H](C(=O)N1CCC[C@H]1c1ccc(-c2ccc(-c3ccc(-c4cnc([C@@H]5CCCN5C(=O)[C@@H](NC(=O)OC)C5CCCCC5)[nH]4)cc3)cc2)[nH]1)C(C)C [AG_101]	1 to 10	0.001 to 0.1	> 1
COC(=O)N[C@H](C(=O)N1CCC[C@H]1c1ncc(-c2ccc(-c3ccc(-c4cnc([C@H]5C6CCC(C6)C5C(=O)NCc5cccnc5)[nH]4)cc3)nc2)[nH]1)[C@@H](C)OC (stereo partly drawn) [AA_242_A]	10 to 100	0.101 to 1	> 1
COC(=O)N[C@H](C(=O)N1CCC[C@H]1c1ncc(-c2ccc(-c3ccc(-c4cnc(C5[C@H]6CC[C@H](C6)[C@H]5C(=O)N[C@@H](c5cccnc5)C(C)C)[nH]4)cc3)cc2)[nH]1)C(C)C (stereo partly drawn) [AA_233_ENDOA2_B]	10 to 100	0.001 to 0.1	> 1
COC(=O)N[C@H](C(=O)N1CCC[C@H]1c1ncc(-c2ccc(-c3ccc(-c4cnc([C@H]5C6CCC(C6)[C@@H]5C(=O)NCc5cccnc5C5CC5)[nH]4)cc3)cc2)[nH]1)C(C)C (stereo partly drawn) [AA_234_A]	1 to 10	0.001 to 0.1	> 1
